Activity calls are given as the source filed them.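 How the source made its calls: active means compounds that shift the dex/IL-1 ratio, either lowering it activators or doubling it inhibitors, at 1 µM (some results past the limit were not filed as active); inactive means the rest.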

This test concerns NF-kB luciferase reporter cells, IL-1b + dexamethasone, 18 h. The experiment in a line: glucocorticoid sensitivity changers, NF-kB reporter – cell-based, luciferase, IL-1B plus dexamethasone, confirmation (AID 686955). The conditions noted are these: for assay II/I ratio: 4 uM; for normalized assay II/I ratio: at 1 µM.

Take `COc1cccc(-n2ncc3c(N/N=C/c4ccc(S(C)(=O)=O)cc4)ncnc32)c1`: the normalized assay II/I ratio is 1.18 (inactive). The assay II/I ratio (dexamethasone conc 1) stood at 0.326. In addition, the assay II/I ratio (dexamethasone conc 2) is 0.242. Also, the normalized assay II/I ratio (dexamethasone concentration 2) turned out to be 1.17.
As to `COc1ccc(O)c(C(=O)c2ccc(C(=O)O[C@H]3CCCNC[C@@H]3NC(=O)c3ccncc3)cc2)c1F`, the normalized assay II/I ratio is 0.93 (inactive). For the same compound, the assay II/I ratio (dexamethasone conc 1) came out at 0.85. In addition, the assay II/I ratio (dexamethasone conc 2) was 0.659. Moreover, the normalized assay II/I ratio (dexamethasone concentration 2) was found to be 0.89.
For the compound `O=C(Nc1n[nH]c2nc(-c3ccc(O)cc3)c(Br)cc12)C1CC1`, the normalized assay II/I ratio was 2.27. Moreover, the assay II/I ratio (dexamethasone conc 1) was found to be 0.935. For the same compound, the assay II/I ratio (dexamethasone conc 2) worked out at 0.684. For the setting “dexamethasone concentration 2”, the normalized assay II/I ratio stood at 2.53.
On the same counts, the results for `Cc1[nH]nc2c1N=C(c1ccccc1F)c1cc(C#N)ccc1N2` are 1.87 (inactive), 0.66, 0.386 and 2.07.
`COc1cccc(-n2ncc3c(N/N=C/c4ccncc4)ncnc32)c1`: the normalized assay II/I ratio is 1.47 (inactive). In addition, where the note is “dexamethasone conc 1”, the assay II/I ratio was determined as 0.504. Besides, for the setting “dexamethasone conc 2”, the assay II/I ratio stood at 0.362. Moreover, the normalized assay II/I ratio (dexamethasone concentration 2) came out at 1.44.
In the case of `Cn1cc(C2=C(c3cccc(NCC(O)CO)c3)C(=O)NC2=O)c2cc(Cl)ccc21` (stereo unspecified), the normalized assay II/I ratio was 1.93 (inactive). Also, for the setting “dexamethasone conc 1”, the assay II/I ratio is 0.664. Moreover, for the setting “dexamethasone conc 2”, the assay II/I ratio came to 0.47. For the same compound, the normalized assay II/I ratio (dexamethasone concentration 2) was 1.97.
With `O=C(NC1NNC2NNC(c3cccnc3)CC21)C1CC1` (stereo unspecified), the normalized assay II/I ratio is 1.91 (inactive). Also, the assay II/I ratio (dexamethasone conc 1) was determined as 0.597. In addition, the assay II/I ratio (dexamethasone conc 2) is 0.43. Moreover, where the note is “dexamethasone concentration 2”, the normalized assay II/I ratio is 1.94.
Consider `Cn1cc(C2=C(c3ccccc3[N+](=O)[O-])C(=O)NC2=O)c2ccccc21`, for which the normalized assay II/I ratio is 2.39. For the same compound, under “dexamethasone conc 1”, the assay II/I ratio amounted to 0.733. Further, the assay II/I ratio (dexamethasone conc 2) came to 0.646. Also, the normalized assay II/I ratio (dexamethasone concentration 2) was found to be 2.62.
On the same counts, the results for `Cn1cc(C2=C(c3cccc(OCC(O)CO)c3)C(=O)NC2=O)c2ccccc21` (stereo unspecified) are 1.68 (inactive), 0.553, 0.398 and 1.68.

The values above are taken from PubChem BioAssay AID686955 (ICCB-Longwood Screening Facility, Harvard Medical School, 2013).
